Reference: article PMC7933930, “Development of a small molecule that corrects misfolding and increases secretion of Z α1‐antitrypsin” (EMBO Molecular Medicine, 2021)

Columns and labels:
Acetyl- cholinesterase = Acetyl- cholinesterase (Homo sapiens, UniProt P22303); assay: Off‐target panel: Acetyl- cholinesterase; type: biochemical
Experimental: (§1) GSK716 selectivity and PK properties were profiled in order to investigate the suitability of GSK716 for progression into in vivo studies and the potential for taking it forward as a clinical candidate for testing in humans. Since GSK716 results in loss of inhibitory activity of α1‐antitrypsin, the effect of the compound was assessed on other closely related serpins. […] Furthermore, there were no off‐target effects in a panel of assays considered predictive of known safety liabilities that precluded further development of GSK716 (Table EV1).

NaV1.5 = NaV1.5 (Homo sapiens, UniProt Q14524); assay: Off‐target panel: NaV1.5 (IonWorks); type: cell-based
Experimental: as §1

PI3Kg = PI3Kg (Homo sapiens, UniProt P48736); assay: Off‐target panel: PI3Kg; type: biochemical; details: Inhibition, read-out: Mean (PXC50)
Experimental: as §1

OATP1B1 = OATP1B1 (Homo sapiens, UniProt Q9Y6L6); assay: Off‐target panel: OATP1B1; type: in vitro ADME; details: Inhibition, read-out: Mean (PXC50)
Experimental: as §1

Adrenergic α1B = Adrenergic α1B (Homo sapiens, UniProt P35368); assay: Off‐target panel: Adrenergic α1B; type: cell-based
Experimental: as §1

α1‐antichymotrypsin = α1‐antichymotrypsin (Homo sapiens, UniProt P01011); assay: Inhibitory activity of α1‐antichymotrypsin against chymotrypsin; type: biochemical
Experimental: Figure 5 The effect of GSK716 on serpin inhibitory activity • α1‐Antitrypsin was incubated at varying molar ratios with the model protease bovine α‐chymotrypsin, and the residual protease activity determined. The intercept of the regression with the abscissa reflects the number of molecules of α1‐antitrypsin required to inhibit one molecule of chymotrypsin in the presence (+c) and absence (−c) of 50µM GSK716. Error bars reflect ± SEM of three independent experiments. • M α1‐antitrypsin was incubated with different molar ratios of chymotrypsin and resolved by SDS–PAGE. The position of covalent α1‐antitrypsin‐chymotrypsin complex (cpx), native (nat) and cleaved (clv) is shown. • The inhibitory activity of α1‐antichymotrypsin against chymotrypsin (ach + chym), neuroserpin against trypsin (neus + tryp), and antithrombin against thrombin (atiii + thrombin) was determined in the presence and absence of GSK716. Error bars reflect ± SD of two independent experiments.
GSK716 selectivity and PK properties were profiled in order to investigate the suitability of GSK716 for progression into in vivo studies and the potential for taking it forward as a clinical candidate for testing in humans. Since GSK716 results in loss of inhibitory activity of α1‐antitrypsin, the effect of the compound was assessed on other closely related serpins. […]

CHO‐TET‐ON‐Z‐A1AT cells = assay: Tunicamycin sensitivity, cell viability (Cell Counting Kit‐8), cells expressing Z α1‐antitrypsin; type: cell-based; details: 10 μM GSK716, cells expressing Z α1‐antitrypsin, tunicamycin 36 h
Experimental: Figure 2 GSK716 inhibits polymerisation of Z α1‐antitrypsin in cell models of disease • A GSK716 was added to CHO‐TET‐ON‐Z‐A1AT cells (Ordóñez et al, 2013) with simultaneous induction of Z α1‐antitrypsin expression using doxycycline, and polymer load was quantified with the 2C1 monoclonal antibody that is specific to pathological polymers of α1‐antitrypsin (Miranda et al, 2010). […] Data were normalised to vehicle and a control compound from the GSK716 series at saturating concentration. […] It induced an approximately threefold increase in secreted levels of Z α1‐antitrypsin compared with vehicle control. This was apparent even after polymers had been allowed to form. Scale bar: 100 µm. Data presented as mean ± SD, n = 8 (secretion) and n = 6 (polymer inhibition). • E CHO tetracycline‐inducible cells expressing Z α1‐antitrypsin were induced with 0.5 μg/ml doxycycline for 48 h and treated with 10 μM GSK716. […] For every time point, NP‐40‐soluble and NP‐40‐insoluble fractions were separated and immunoprecipitated with the 2C1 mAb and resolved by 4–12% w/v SDS–PAGE and α1‐antitrypsin detected by immunoblotting. […] Cell viability was measured by Cell Counting Kit‐8. […] Samples were resolved by 4–12% w/v acrylamide SDS–PAGE and detected by autoradiography. • H The graphs show the effect of GSK716 on intracellular and extracellular Z α1‐antitrypsin (mean ± SEM, n = 2). […]

Acetyl- cholinesterase, sequence (P22303 32-614, species assumed): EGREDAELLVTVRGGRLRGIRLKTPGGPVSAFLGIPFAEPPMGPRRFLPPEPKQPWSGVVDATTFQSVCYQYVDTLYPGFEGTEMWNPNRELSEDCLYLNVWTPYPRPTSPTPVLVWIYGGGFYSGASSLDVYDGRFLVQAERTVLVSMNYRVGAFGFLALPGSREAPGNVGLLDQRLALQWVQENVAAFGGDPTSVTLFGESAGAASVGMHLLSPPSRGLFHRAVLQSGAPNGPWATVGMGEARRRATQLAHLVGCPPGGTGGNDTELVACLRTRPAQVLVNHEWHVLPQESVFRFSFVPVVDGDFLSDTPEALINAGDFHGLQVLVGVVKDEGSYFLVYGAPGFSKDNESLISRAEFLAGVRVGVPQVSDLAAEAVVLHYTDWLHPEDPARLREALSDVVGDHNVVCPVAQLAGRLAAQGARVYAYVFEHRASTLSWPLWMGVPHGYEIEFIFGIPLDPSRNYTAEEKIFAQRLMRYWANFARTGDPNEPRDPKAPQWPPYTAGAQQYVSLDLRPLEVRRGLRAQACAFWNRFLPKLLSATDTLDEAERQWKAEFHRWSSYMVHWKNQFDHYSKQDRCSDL
α1‐antichymotrypsin, sequence (P01011 24-423, species assumed): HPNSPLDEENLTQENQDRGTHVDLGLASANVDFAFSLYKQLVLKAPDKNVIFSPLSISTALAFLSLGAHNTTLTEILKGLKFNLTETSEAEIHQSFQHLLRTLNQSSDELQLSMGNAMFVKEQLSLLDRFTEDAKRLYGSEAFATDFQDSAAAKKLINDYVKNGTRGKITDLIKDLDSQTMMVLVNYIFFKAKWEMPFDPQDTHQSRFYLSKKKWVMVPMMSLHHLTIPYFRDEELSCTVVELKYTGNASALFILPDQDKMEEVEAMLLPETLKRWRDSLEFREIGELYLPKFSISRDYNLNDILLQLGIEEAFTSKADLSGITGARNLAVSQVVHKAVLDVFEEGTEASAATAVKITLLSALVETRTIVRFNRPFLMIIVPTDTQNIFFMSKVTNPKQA
OATP1B1, sequence (Q9Y6L6 whole entry, species assumed): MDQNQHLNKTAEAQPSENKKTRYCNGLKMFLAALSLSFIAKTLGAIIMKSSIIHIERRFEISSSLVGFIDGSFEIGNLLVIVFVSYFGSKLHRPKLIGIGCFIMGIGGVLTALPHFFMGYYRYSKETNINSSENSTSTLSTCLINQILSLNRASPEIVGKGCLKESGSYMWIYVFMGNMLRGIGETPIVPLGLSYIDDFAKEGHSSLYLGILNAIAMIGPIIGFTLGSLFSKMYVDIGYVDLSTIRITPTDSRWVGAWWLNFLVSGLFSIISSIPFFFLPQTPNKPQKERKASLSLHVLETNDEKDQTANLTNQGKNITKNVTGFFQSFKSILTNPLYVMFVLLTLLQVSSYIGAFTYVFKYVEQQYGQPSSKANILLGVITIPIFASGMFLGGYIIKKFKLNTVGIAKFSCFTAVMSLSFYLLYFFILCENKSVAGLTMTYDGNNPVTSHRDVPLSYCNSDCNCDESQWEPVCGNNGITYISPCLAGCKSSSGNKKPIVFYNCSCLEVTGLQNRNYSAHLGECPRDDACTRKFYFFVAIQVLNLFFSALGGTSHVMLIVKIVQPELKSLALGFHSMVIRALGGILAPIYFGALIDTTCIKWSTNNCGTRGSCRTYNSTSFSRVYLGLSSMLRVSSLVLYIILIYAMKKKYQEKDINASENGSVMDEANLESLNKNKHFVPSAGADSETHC
NaV1.5, sequence (Q14524 whole entry): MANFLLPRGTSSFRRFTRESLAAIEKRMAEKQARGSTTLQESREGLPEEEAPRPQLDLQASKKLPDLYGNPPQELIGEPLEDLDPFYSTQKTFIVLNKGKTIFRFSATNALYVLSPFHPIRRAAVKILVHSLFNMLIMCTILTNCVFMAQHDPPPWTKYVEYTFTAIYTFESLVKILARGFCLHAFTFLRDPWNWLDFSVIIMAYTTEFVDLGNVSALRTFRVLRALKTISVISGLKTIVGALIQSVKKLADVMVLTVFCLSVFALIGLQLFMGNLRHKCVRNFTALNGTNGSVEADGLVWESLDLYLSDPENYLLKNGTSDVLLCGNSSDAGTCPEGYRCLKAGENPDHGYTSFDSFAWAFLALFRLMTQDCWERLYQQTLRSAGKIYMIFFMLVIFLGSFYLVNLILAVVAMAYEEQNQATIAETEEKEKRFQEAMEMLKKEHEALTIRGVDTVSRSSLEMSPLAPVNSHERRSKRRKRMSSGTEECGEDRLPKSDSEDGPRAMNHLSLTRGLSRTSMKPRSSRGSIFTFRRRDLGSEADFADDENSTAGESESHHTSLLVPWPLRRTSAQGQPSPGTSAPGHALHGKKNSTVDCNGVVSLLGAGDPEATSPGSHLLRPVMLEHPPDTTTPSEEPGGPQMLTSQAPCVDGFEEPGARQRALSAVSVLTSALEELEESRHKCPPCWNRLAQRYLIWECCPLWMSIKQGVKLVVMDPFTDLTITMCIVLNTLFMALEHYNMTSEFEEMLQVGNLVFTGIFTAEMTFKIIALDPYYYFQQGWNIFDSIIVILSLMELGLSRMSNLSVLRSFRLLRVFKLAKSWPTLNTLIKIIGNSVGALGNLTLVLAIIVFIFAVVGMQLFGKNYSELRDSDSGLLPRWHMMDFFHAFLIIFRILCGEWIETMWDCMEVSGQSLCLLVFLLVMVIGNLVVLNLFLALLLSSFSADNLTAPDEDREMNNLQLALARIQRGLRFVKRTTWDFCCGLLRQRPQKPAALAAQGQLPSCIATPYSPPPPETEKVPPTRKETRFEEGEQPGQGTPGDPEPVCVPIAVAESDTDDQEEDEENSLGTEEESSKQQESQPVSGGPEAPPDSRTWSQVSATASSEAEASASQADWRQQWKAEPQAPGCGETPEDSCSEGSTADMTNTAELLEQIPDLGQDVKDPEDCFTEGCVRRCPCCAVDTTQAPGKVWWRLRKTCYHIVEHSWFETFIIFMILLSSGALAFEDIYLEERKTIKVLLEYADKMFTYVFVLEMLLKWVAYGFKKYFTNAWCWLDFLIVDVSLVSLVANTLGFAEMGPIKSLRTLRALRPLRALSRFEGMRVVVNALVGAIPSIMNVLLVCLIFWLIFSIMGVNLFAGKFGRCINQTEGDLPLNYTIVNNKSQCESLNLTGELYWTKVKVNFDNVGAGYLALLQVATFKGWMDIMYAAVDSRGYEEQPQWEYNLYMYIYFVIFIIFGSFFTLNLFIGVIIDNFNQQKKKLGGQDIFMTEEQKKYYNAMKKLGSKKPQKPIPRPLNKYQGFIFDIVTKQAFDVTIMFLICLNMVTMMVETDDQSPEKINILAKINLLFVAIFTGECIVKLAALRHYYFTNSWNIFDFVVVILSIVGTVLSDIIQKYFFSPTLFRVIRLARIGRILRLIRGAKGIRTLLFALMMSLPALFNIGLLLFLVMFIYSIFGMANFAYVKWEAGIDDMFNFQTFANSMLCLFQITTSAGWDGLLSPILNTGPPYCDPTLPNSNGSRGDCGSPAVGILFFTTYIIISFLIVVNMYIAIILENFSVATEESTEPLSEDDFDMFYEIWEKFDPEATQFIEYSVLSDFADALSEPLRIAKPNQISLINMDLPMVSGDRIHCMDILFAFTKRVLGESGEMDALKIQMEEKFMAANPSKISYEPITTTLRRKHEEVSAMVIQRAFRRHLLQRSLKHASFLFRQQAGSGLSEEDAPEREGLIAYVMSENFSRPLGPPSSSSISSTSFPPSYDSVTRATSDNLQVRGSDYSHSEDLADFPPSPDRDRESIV
Adrenergic α1B, sequence (P35368 whole entry): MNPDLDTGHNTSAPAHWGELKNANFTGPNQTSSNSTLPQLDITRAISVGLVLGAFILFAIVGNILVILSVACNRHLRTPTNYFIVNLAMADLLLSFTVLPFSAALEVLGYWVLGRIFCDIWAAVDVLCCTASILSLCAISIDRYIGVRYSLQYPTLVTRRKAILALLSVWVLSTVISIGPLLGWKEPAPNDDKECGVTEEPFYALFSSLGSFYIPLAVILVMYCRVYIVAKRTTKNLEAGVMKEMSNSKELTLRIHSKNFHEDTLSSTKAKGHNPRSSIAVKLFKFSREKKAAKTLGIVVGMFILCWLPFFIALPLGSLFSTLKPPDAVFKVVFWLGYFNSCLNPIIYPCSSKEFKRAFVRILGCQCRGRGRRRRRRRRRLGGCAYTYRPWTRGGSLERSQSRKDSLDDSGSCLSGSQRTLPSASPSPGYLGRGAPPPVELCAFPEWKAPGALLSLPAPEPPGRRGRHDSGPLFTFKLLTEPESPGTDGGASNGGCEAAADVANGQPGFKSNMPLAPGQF

## CCC[C@@H](NC(=O)c1cccc2c1CC(=O)N2)[C@@H](O)c1cccc(F)c1C [GSK716]
Acetyl- cholinesterase
  IC50: 100 µM
NaV1.5
  IC50: 79.4 µM
PI3Kg
  IC50: > 31.6 µM
OATP1B1
  IC50: > 50.1 µM
Adrenergic α1B
  IC50: > 25.1 µM
α1‐antichymotrypsin
  inhibitory activity of α1‐antichymotrypsin towards its cognate protease: did not affect
CHO‐TET‐ON‐Z‐A1AT cells
  sensitivity to tunicamycin (cell viability): restored sensitivity of Z α1‐antitrypsin expressing cells to that of the wild‐type control cells
